In US5925731A, “Endothelin antagonist peptides” (Takeda Chemical Industries, Ltd., priority 1995, dated 1999):
*1 amine or outer side, *2 acyl side, *3 side chain or, on linkers, in order; H or OH if unused. Where a SMILES comes first, the peptide text is derived from it. [ ]: non-standard residue; d: D form. The star is where a group is joined. Piperazinyl(4-(2-MeOPh)) = COc1ccccc1N1CCN(*)CC1; Piperazinyl(4-Ph) = c1ccc(N2CCN(*)CC2)cc1; X3 = COc1ccc(C)cc1N1CCN(*)CC1; X2 = COc1cccc(N2CCN(*)CC2)c1; dNle = CCCC[C@@H](N)C(=O)O; X4 = Fc1ccccc1N1CCN(*)CC1; Nle = CCCC[C@H](N)C(=O)O; CO = O=C([*:1])[*:2]; X1 = C1CCCN(*)CC1; Moc = COC(=O)*; For = O=C*

Experiments:
[1] = target: T1, human endothelin receptor ETB (Homo sapiens, UniProt P24530); assay: Radioiodinated endothelin-1 binding to membrane fraction of CHO cells expressing human endothelin receptor ETB; details: radioactive-iodine-labeled endothelin-1, 25° C., one hour
T1 construct: expressed in transfected cells; host or cells: CHO cells (membrane fraction)
T1 sequence (P24530 27-442): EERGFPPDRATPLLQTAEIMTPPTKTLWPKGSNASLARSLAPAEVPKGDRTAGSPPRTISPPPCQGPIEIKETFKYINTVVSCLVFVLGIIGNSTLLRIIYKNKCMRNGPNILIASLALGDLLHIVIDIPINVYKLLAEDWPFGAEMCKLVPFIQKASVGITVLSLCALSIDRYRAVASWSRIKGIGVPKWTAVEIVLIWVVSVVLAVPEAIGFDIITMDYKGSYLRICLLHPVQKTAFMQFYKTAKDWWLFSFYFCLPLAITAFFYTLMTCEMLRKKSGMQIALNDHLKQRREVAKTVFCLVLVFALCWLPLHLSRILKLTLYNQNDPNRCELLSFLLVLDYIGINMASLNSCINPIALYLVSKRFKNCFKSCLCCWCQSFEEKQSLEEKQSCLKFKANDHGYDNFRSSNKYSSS
Description: (§1) The membrane fraction of CHO cells on which human endothelin receptor (ETA or ETB) was expressed was diluted to 0.15 mg/ml with an assaying buffer and dispensed to assaying tubes at 100 μl per tube. To this membrane fraction suspension were added 2 μl of a solution of endothelin-1 labeled with radioactive iodine (5 nM) and 3 μl of a 50% dimethyl sulfoxide of the test compound, followed by incubation at 25° C. for one hour. The membrane fraction suspension was diluted with 900 μl of an ice-cooled assaying buffer and centrifuged at 12,000×G for 10 minutes to separate supernatant and precipitate. The precipitate contained cell membranes and endothelin receptors embedded therein. The receptor-bound endothelin, labeled with radioactive iodine, was also recovered in the precipitate. The radioactive iodine in this precipitate was counted, using a gamma ray counter, to determine the amount of radioactive-iodine-labeled endothelin-1 bound to the endothelin receptors. The results of the quantitative determination were shown in the respective IC50 (nm) values in the following Table 2.

[2] = target: T2, human endothelin receptor ETA (Homo sapiens, UniProt P25101); assay: Radioiodinated endothelin-1 binding to membrane fraction of CHO cells expressing human endothelin receptor ETA; details: radioactive-iodine-labeled endothelin-1, 25° C., one hour
T2 construct: expressed in transfected cells; host or cells: CHO cells (membrane fraction)
T2 sequence (P25101 21-427): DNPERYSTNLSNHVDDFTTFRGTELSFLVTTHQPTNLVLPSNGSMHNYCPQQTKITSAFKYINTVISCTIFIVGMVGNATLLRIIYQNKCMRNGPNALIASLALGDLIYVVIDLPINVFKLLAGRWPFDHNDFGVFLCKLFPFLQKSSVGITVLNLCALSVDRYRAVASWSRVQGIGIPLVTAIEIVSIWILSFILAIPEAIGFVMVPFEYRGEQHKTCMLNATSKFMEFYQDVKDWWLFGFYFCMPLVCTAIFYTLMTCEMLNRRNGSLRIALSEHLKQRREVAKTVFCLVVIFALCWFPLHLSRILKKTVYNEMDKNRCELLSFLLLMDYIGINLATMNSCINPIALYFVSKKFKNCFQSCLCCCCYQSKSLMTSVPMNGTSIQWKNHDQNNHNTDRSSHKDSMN
Description: as §1

SMILES | IC50 [1] | IC50 [2]
CCCC[C@@H](NC(=O)[C@@H](Cc1cn(C=O)c2ccccc12)NC(=O)[C@H](CC(C)C)NC(=O)N1CCCCCC1)C(=O)N[C@H](CC(=O)N1CCN(c2ccccc2)CC1)C(=O)O [W. Ex. 1, Hexamethyleniminocarbonyl-Leu-D-Trp(CHO)-D-Nle-D-Asp(Php)] ({X1-CO}-L[dW](For)[dNle][dD](Piperazinyl(4-Ph))-OH) | 130 nM | 1.8 nM
CCCC[C@@H](NC(=O)[C@@H](Cc1cn(C(=O)OC)c2ccccc12)NC(=O)[C@H](CC(C)C)NC(=O)N1CCCCCC1)C(=O)N[C@H](CC(=O)N1CCN(c2ccccc2)CC1)C(=O)O [W. Ex. 2, Hexamethyleniminocarbonyl-Leu-D-Trp(COOMe)-D-Nle-D-Asp(Php)] ({X1-CO}-L[dW](Moc)[dNle][dD](Piperazinyl(4-Ph))-OH) | 18 nM | 11 nM
CCCC[C@@H](NC(=O)[C@@H](Cc1cn(C(=O)OC)c2ccccc12)NC(=O)[C@H](CC(C)C)NC(=O)N1CCCCCC1)C(=O)N[C@@H](CC(=O)N1CCN(c2ccccc2)CC1)C(=O)O [W. Ex. 3, Hexamethyleniminocarbonyl-Leu-D-Trp(COOMe)-D-Nle-Asp (Php)] ({X1-CO}-L[dW](Moc)[dNle]D(Piperazinyl(4-Ph))-OH) | 34 nM | 45 nM
CCCC[C@H](NC(=O)N1CCCCCC1)C(=O)N[C@H](Cc1cn(C(=O)OC)c2ccccc12)C(=O)N[C@H](CCCC)C(=O)N[C@H](CC(=O)N1CCN(c2ccccc2)CC1)C(=O)O [W. Ex. 10, Hexamethyleniminocarbonyl-Nle-D-Trp(COOMe)-D-Nle-D-Asp(Php)] ({X1-CO}-[Nle][dW](Moc)[dNle][dD](Piperazinyl(4-Ph))-OH) | 75 nM | 34 nM

More lines, now with the values ahead:

IC50 [1] | IC50 [2] | SMILES
23 nM | 23 nM | CCCC[C@@H](NC(=O)[C@@H](Cc1cn(C(=O)OC)c2ccccc12)NC(=O)[C@H](CC(C)C)NC(=O)N1CCCCCC1)C(=O)N[C@H](CCC(=O)O)C(=O)N1CCN(c2ccccc2)CC1 [W. Ex. 4, Hexamethyleniminocarbonyl-Leu-D-Trp(COOMe)-D-Nle-D-Glu-Php] ({X1-CO}-L[dW](Moc)[dNle][dE]-{Piperazinyl(4-Ph)})
29 nM | 18 nM | CCCC[C@@H](NC(=O)[C@@H](Cc1cn(C(=O)OC)c2ccccc12)NC(=O)[C@H](CC(C)C)NC(=O)N1CCCCCC1)C(=O)N[C@H](CC(=O)N1CCN(c2ccccc2F)CC1)C(=O)O [W. Ex. 8, Hexamethyleniminocarbonyl-Leu-D-Trp(COOMe)-D-Nle-D-Asp (2FPhp)] ({X1-CO}-L[dW](Moc)[dNle][dD](X4)-OH)
7.9 nM | 7.1 nM | CCCC[C@@H](NC(=O)[C@@H](Cc1cn(C(=O)OC)c2ccccc12)NC(=O)[C@H](CC(C)C)NC(=O)N1CCCCCC1)C(=O)N[C@H](CC(=O)N1CCN(c2ccccc2OC)CC1)C(=O)O [W. Ex. 5, Hexamethyleniminocarbonyl-Leu-D-Trp(COOMe)-D-Nle-D-Asp (2MeOPhp)] ({X1-CO}-L[dW](Moc)[dNle][dD](Piperazinyl(4-(2-MeOPh)))-OH)
15 nM | 21 nM | CCCC[C@@H](NC(=O)[C@@H](Cc1cn(C(=O)OC)c2ccccc12)NC(=O)[C@@H](NC(=O)N1CCCCCC1)[C@@H](C)CC)C(=O)N[C@H](CC(=O)N1CCN(c2ccccc2)CC1)C(=O)O [W. Ex. 9, Hexamethyleniminocarbonyl-Ile-D-Trp(COOMe)-D-Nle-D-Asp(Php)] ({X1-CO}-I[dW](Moc)[dNle][dD](Piperazinyl(4-Ph))-OH)
29 nM | 28 nM | CCCC[C@@H](NC(=O)[C@@H](Cc1cn(C(=O)OC)c2ccccc12)NC(=O)[C@H](CC(C)C)NC(=O)N1CCCCCC1)C(=O)N[C@H](CC(=O)N1CCN(c2cccc(OC)c2)CC1)C(=O)O [W. Ex. 6, Hexamethyleniminocarbonyl-Leu-D-Trp(COOMe)-D-Nle-D-Asp (3MeOPhp)] ({X1-CO}-L[dW](Moc)[dNle][dD](X2)-OH)
110 nM | 49 nM | CCCC[C@@H](NC(=O)[C@@H](Cc1cn(C(=O)OC)c2ccccc12)NC(=O)[C@H](CC(C)C)NC(=O)N1CCCCCC1)C(=O)N[C@H](CC(=O)N1CCN(c2cc(C)ccc2OC)CC1)C(=O)O [W. Ex. 7, Hexamethyleniminocarbonyl-Leu-D-Trp(COOMe)-D-Nle-D-Asp(2MeO-5MePhp)] ({X1-CO}-L[dW](Moc)[dNle][dD](X3)-OH)
